Reference: patent US3957779A, “Benzo-1,2,4-triazines” (Bayer Aktiengesellschaft, priority 1972, dated 1976)
In brackets after ≈: the same amount, converted by molar mass.

What was measured:
Escherichia coli A261 = test: MIC, plate test (Table 1); type: cell-based; settings: 37°C, 24 hours, read-out: Minimum inhibitory concentration (MIC)
Description: (§1) The minimum inhibitory concentration (MIC) was determined in the plate test on a complete nutrient base of the following composition: 10 g of proteose-peptone, 10 g of veal infusion, 2 g of dextrose, 3 g of sodium chloride, 2 g of disodium phosphate, 1 g of sodium acetate, 0.01 g of adenine sulphate, 0.01 g of guanine hydrochloride, 0.01 g of uracil, 0.01 g. of xantin, 12 g of agar-agar and 1 liter of water.
(§2) The incubation temperature was 37°C and the incubation time was 24 hours.

Escherichia coli C165 [1] = test: MIC, plate test (Table 1); type: cell-based; settings: 37°C, 24 hours, read-out: Minimum inhibitory concentration (MIC)
Description: as §1, §2

Klebsiella 63 = test: MIC, plate test (Table 1); type: cell-based; settings: 37°C, 24 hours, read-out: Minimum inhibitory concentration (MIC)
Description: as §1, §2

Klebsiella 8085 [2] = test: MIC, plate test (Table 1); type: cell-based; settings: 37°C, 24 hours, read-out: Minimum inhibitory concentration (MIC)
Description: as §1, §2

Proteus vulgaris 1017 [3] = test: MIC, plate test (Table 1); type: cell-based; settings: 37°C, 24 hours, read-out: Minimum inhibitory concentration (MIC)
Description: as §1, §2

Pseudomonas aeruginosa B [4] = test: MIC, plate test (Table 1); type: cell-based; settings: 37°C, 24 hours, read-out: Minimum inhibitory concentration (MIC)
Description: as §1, §2

Pseudomonas aeruginosa w [5] = test: MIC, plate test (Table 1); type: cell-based; settings: 37°C, 24 hours, read-out: Minimum inhibitory concentration (MIC)
Description: as §1, §2

Salmonella species [6] = test: MIC, plate test (Table 1); type: cell-based; settings: 37°C, 24 hours, read-out: Minimum inhibitory concentration (MIC)
Description: as §1, §2

[7] = system: Staphylococcus aureus 133; test: MIC, plate test (Table 1); type: cell-based; settings: 37°C, 24 hours, read-out: Minimum inhibitory concentration (MIC)
Description: as §1, §2

Streptococcus pyogenes = test: MIC, plate test (Table 1); type: cell-based; settings: with serum, 37°C, 24 hours, read-out: Minimum inhibitory concentration (MIC)
Description: as §1, §2

Mycoplasma bovirhinis = test: MIC, series dilution test, PPLO-medium (Table 1); type: cell-based; settings: 37°C, 18, 24 and 48 hours, read-out: Minimum inhibitory concentration (MIC)
Description: (§3) The mycoplasmae were tested in the series dilution test (PPLO-medium) at 37°C, with observations after 18, 24 and 48 hours.

Mycoplasma gallisepticum = test: MIC, series dilution test, PPLO-medium (Table 1); type: cell-based; settings: Mycoplasmoides gallisepticum, 37°C, 18, 24 and 48 hours, read-out: Minimum inhibitory concentration (MIC)
Description: as §3

Mycoplasma granularum = test: MIC, series dilution test, PPLO-medium (Table 1); type: cell-based; settings: Acholeplasma granularum, 37°C, 18, 24 and 48 hours, read-out: Minimum inhibitory concentration (MIC)
Description: as §3

[8] = system: Mycobacterium tuberculosis; test: MIC, series dilution test, Jenssen egg medium; type: cell-based; settings: 37°C, read-out: minimum inhibitory concentration
Description: The compounds of Examples 12 and 13 show minimum inhibitory concentrations of 32 γ/ml of nutrient medium in the series dilution test, Jenssen egg medium, 37°C, against Mycobacterium tuberculosis.

Klebsiella 8085 [9] = test: In vivo ED50, intraperitoneal infection of white mice (Table 2); settings: sc; Klebsiella 8085 i.p. infection; s.c. 15 minutes before infection; 50% survival at 24 hours
Escherichia coli C165 [10] = test: as above; settings: sc; Escherichia coli C165 i.p. infection; s.c. 15 minutes before infection; 50% survival at 24 hours
Escherichia coli A 261 = test: Turbidity test in Mueller-Hinton nutrient solution; type: cell-based; settings: 100 γ/ml, 24 hours, 37°C
Escherichia coli 14 = test: Turbidity test in Mueller-Hinton nutrient solution; type: cell-based; settings: 100 γ/ml, 24 hours, 37°C
Escherichia coli C 165 = test: Turbidity test in Mueller-Hinton nutrient solution; type: cell-based; settings: 100 γ/ml, 24 hours, 37°C
Proteus vulgaris 1017 [11] = test: Turbidity test in Mueller-Hinton nutrient solution; type: cell-based; settings: 100 γ/ml, 24 hours, 37°C
Klebsiella K 10 = test: Turbidity test in Mueller-Hinton nutrient solution; type: cell-based; settings: 100 γ/ml, 24 hours, 37°C
Klebsiella K 63 = test: Turbidity test in Mueller-Hinton nutrient solution; type: cell-based; settings: 100 γ/ml, 24 hours, 37°C
Salmonella species [12] = test: Turbidity test in Mueller-Hinton nutrient solution; type: cell-based; settings: 100 γ/ml, 24 hours, 37°C
Description: (§4) 100 γ/ml of the compounds according to the invention are dissolved in Mueller-Hinton nutrient solution, with addition of 0.1% of glucose. The nutrient solution contains […] microbes per ml. The mixture is incubated in glass test tubes for 24 hours at 37°C and after this time the degree of turbidity is determined.

Shigella species = test: Turbidity test in Mueller-Hinton nutrient solution; type: cell-based; settings: 100 γ/ml, 24 hours, 37°C
Description: as §4

Enterobacter species = test: Turbidity test in Mueller-Hinton nutrient solution; type: cell-based; settings: 100 γ/ml, 24 hours, 37°C
[13] = system: Neisseria catarrhalis species; test: Turbidity test in Mueller-Hinton nutrient solution; type: cell-based; settings: 100 γ/ml, 24 hours, 37°C
[14] = system: Diplococcus pneumoniae species; test: Turbidity test in Mueller-Hinton nutrient solution; type: cell-based; settings: 100 γ/ml, 24 hours, 37°C
Streptococcus pyogenes W = test: Turbidity test in Mueller-Hinton nutrient solution; type: cell-based; settings: 100 γ/ml, 24 hours, 37°C
Enterococcus species = test: Turbidity test in Mueller-Hinton nutrient solution; type: cell-based; settings: 100 γ/ml, 24 hours, 37°C
Lactobacillus species = test: Turbidity test in Mueller-Hinton nutrient solution; type: cell-based; settings: 100 γ/ml, 24 hours, 37°C
Serratia species = test: Turbidity test in Mueller-Hinton nutrient solution; type: cell-based; settings: 100 γ/ml, 24 hours, 37°C
[15] = system: Proteus indole-negative, species; test: Turbidity test in Mueller-Hinton nutrient solution; type: cell-based; settings: 100 γ/ml, 24 hours, 37°C
[16] = system: Proteus indole-positive, species; test: Turbidity test in Mueller-Hinton nutrient solution; type: cell-based; settings: 100 γ/ml, 24 hours, 37°C
[17] = system: Pasteurella pseudotuberculosis; type: cell-based; settings: 100 γ/ml, 24 hours, 37°C
Brucella species = type: cell-based; settings: 100 γ/ml, 24 hours, 37°C
[18] = system: Haemophilus influenzae 281; test: Turbidity test in Mueller-Hinton nutrient solution; type: cell-based; settings: 100 γ/ml, 24 hours, 37°C
[19] = system: Bordetella bronchiseptica; test: Turbidity test in Mueller-Hinton nutrient solution; type: cell-based; settings: 100 γ/ml, 24 hours, 37°C
Bacteroides species = test: Turbidity test in Mueller-Hinton nutrient solution; type: cell-based; settings: 100 γ/ml, 24 hours, 37°C
[20] = system: Staphylococcus aureus 133; test: Turbidity test in Mueller-Hinton nutrient solution; type: cell-based; settings: 100 γ/ml, 24 hours, 37°C
Pseudomonas aeruginosa w [21] = test: Turbidity test in Mueller-Hinton nutrient solution; type: cell-based; settings: 100 γ/ml, 24 hours, 37°C
Pseudomonas aeruginosa B [22] = test: Turbidity test in Mueller-Hinton nutrient solution; type: cell-based; settings: 100 γ/ml, 24 hours, 37°C
[23] = system: Aeromonas hydrophila species; test: Turbidity test in Mueller-Hinton nutrient solution; type: cell-based; settings: 100 γ/ml, 24 hours, 37°C
[24] = system: Corynebacterium diphtheriae gravis; test: Turbidity test in Mueller-Hinton nutrient solution; type: cell-based; settings: 100 γ/ml, 24 hours, 37°C
[25] = system: Corynebacterium pyogenes M; test: Turbidity test in Mueller-Hinton nutrient solution; type: cell-based; settings: 100 γ/ml, 24 hours, 37°C
Clostridium botulinium = type: cell-based
Clostridium tetani = type: cell-based; settings: 100 γ/ml, 24 hours, 37°C
Borrelia species = test: Turbidity test in Mueller-Hinton nutrient solution; type: cell-based; settings: 100 γ/ml, 24 hours, 37°C

Which results are given for CNc1n[n+]([O-])c2ccccc2[n+]1[O-] [Example 1, 3-(N-methylamino)-benzo-1,2,4-triazine-1,4-di-N-oxide]?
MIC (Escherichia coli A261): 8 µg/mL (≈ 41.6 µM); MIC (Escherichia coli C165 [1]): 8 µg/mL (≈ 41.6 µM); MIC (Klebsiella 63): 128 µg/mL (≈ 666 µM); MIC (Klebsiella 8085 [2]): 8 µg/mL (≈ 41.6 µM); MIC (Proteus vulgaris 1017 [3]): 128 µg/mL (≈ 666 µM); MIC (Pseudomonas aeruginosa B [4]): 8 µg/mL (≈ 41.6 µM); MIC (Pseudomonas aeruginosa w [5]): 128 µg/mL (≈ 666 µM); MIC (Salmonella species [6]): 8 to 16 µg/mL (≈ 41.6 to 83.3 µM); MIC [7]: 8 µg/mL (≈ 41.6 µM); MIC (Streptococcus pyogenes): 128 µg/mL (≈ 666 µM); MIC (Mycoplasma bovirhinis): 1 µg/mL (≈ 5.2 µM); MIC (Mycoplasma gallisepticum): 1 µg/mL (≈ 5.2 µM); MIC (Mycoplasma granularum): 1 µg/mL (≈ 5.2 µM); MIC [8]: 32 µg/mL (≈ 167 µM); ED50 (Klebsiella 8085 [9]): 25 mg/kg; ED50 (Escherichia coli C165 [10]): 25 mg/kg

For O=C(CCl)Nc1n[n+]([O-])c2ccccc2[n+]1[O-] [Example 9, 3-(N-chloroacetylamino)-benzo-1,2,4-triazine-1,4-di-N-oxide], which ED50 (Klebsiella 8085 [9]) is on record?
The ED50 was 25 mg/kg.

For NC(=O)Nc1n[n+]([O-])c2ccccc2[n+]1[O-] [Example 13, 1,4-dioxo-benzo-1,2,4-triazin-3-yl-urea], which MIC [8] is on record?
Its MIC is 32 µg/mL (≈ 145 µM).

And the turbidity after incubation (Escherichia coli A 261)?
Its turbidity after incubation is “remained free of turbidity”.

What about the turbidity after incubation (Escherichia coli 14) of the same compound?
Its turbidity after incubation is “remained free of turbidity”.

What about the turbidity after incubation (Escherichia coli C 165) of the same compound?
Its turbidity after incubation is “remained free of turbidity”.

And the turbidity after incubation (Proteus vulgaris 1017 [11])?
The turbidity after incubation was “remained free of turbidity”.

What about the turbidity after incubation (Klebsiella K 10) of the same compound?
Its turbidity after incubation is “remained free of turbidity”.

What about the turbidity after incubation (Klebsiella K 63) of the same compound?
The turbidity after incubation was “remained free of turbidity”.

What about the turbidity after incubation (Salmonella species [12]) of the same compound?
The turbidity after incubation was “remained free of turbidity”.

What about the turbidity after incubation (Shigella species) of the same compound?
Its turbidity after incubation is “remained free of turbidity”.

And the turbidity after incubation (Enterobacter species)?
Its turbidity after incubation is “remained free of turbidity”.

And the turbidity after incubation [13]?
The turbidity after incubation was “remained free of turbidity”.

And the turbidity after incubation [14]?
The turbidity after incubation was “remained free of turbidity”.

And the turbidity after incubation (Streptococcus pyogenes W)?
The turbidity after incubation was “remained free of turbidity”.

And the turbidity after incubation (Enterococcus species)?
The turbidity after incubation was “remained free of turbidity”.

And the turbidity after incubation (Lactobacillus species)?
The turbidity after incubation was “remained free of turbidity”.

And the turbidity after incubation (Serratia species)?
The turbidity after incubation was “remained free of turbidity”.

What about the turbidity after incubation [15] of the same compound?
The turbidity after incubation was “remained free of turbidity”.

What about the turbidity after incubation [16] of the same compound?
The turbidity after incubation was “remained free of turbidity”.

What about the turbidity after incubation [17] of the same compound?
Its turbidity after incubation is “remained free of turbidity”.

What about the turbidity after incubation (Brucella species) of the same compound?
The turbidity after incubation was “remained free of turbidity”.

What about the turbidity after incubation [18] of the same compound?
Its turbidity after incubation is “remained free of turbidity”.

What about the turbidity after incubation [19] of the same compound?
Its turbidity after incubation is “remained free of turbidity”.

What about the turbidity after incubation (Bacteroides species) of the same compound?
The turbidity after incubation was “remained free of turbidity”.

What about the turbidity after incubation [20] of the same compound?
The turbidity after incubation was “remained free of turbidity”.

And the turbidity after incubation (Pseudomonas aeruginosa w [21])?
The turbidity after incubation was “remained free of turbidity”.

What about the turbidity after incubation (Pseudomonas aeruginosa B [22]) of the same compound?
Its turbidity after incubation is “remained free of turbidity”.

And the turbidity after incubation [23]?
The turbidity after incubation was “remained free of turbidity”.

And the turbidity after incubation [24]?
The turbidity after incubation was “remained free of turbidity”.

And the turbidity after incubation [25]?
The turbidity after incubation was “remained free of turbidity”.

What about the turbidity after incubation (Clostridium botulinium) of the same compound?
Its turbidity after incubation is “remained free of turbidity”.

And the turbidity after incubation (Clostridium tetani)?
The turbidity after incubation was “remained free of turbidity”.

And the turbidity after incubation (Borrelia species)?
The turbidity after incubation was “remained free of turbidity”.
